3 compounds from patent publication US20100261767A1, “OXADIAZOLE DERIVATIVES FOR USE AS S1P1 AGONISTS IN THE TREATMENT OF AUTOIMMUNE AND INFLAMMATORY DISORDERS” (priority 2007, published 2010) can be followed below.

The target in one assay is T1, human S1P1 receptor (Homo sapiens, UniProt P21453).
T1 construct: expressed in transfected cells; membranes
Description: S1P1 GTPγS Assay. Format: biochemical. The note with it: human S1P1 rat hepatoma membranes, agonist. On the procedure:
Membrane Preparation for S1P1 GTPγS Assay
For membrane preparations all steps were performed at 4° C. Rat hepatoma cells stably expressing the human S1P1 receptor or Rat Basophilic Leukaemia cells (RBL) stably expressing human S1P3 receptor were grown to 80% confluency before being harvested into 10 ml Phospho-Buffered Saline (PBS) and centrifuged at 1200 rpm for 5 minutes. After removal of the supernatant, the pellet was re-suspended and cells were homogenised within a glass Waring blender for 2 bursts of 15 secs in 200 mls of buffer (50 mM HEPES, 1 mM leupeptin, 25 μg/ml bacitracin, 1 mM EDTA, 1 mM PMSF, 2 μM pepstatin A). The blender was plunged into ice for 5 mins after the first burst and 10-40 mins after the final burst to allow foam to dissipate. […]
After 30 minutes pre-coupling on ice the bead and membrane suspension was dispensed into a white Greiner polypropylene LV384-well plate (5 μl/well), containing 0.1 μl of the compound. […] The final assay cocktail (10.1 μl) was then centrifuged at 1000 rpm for 5 minutes then read immediately on a Viewlux reader. […]
(§1) After 30 minutes precoupling on ice, the bead and membrane suspension was dispensed into white Greiner polypropylene LV 384-well plates (5 μl/well), containing 0.1 μl of compound. […] The final assay cocktail (10.1 μl) was then sealed, spun on a centrifuge, then read immediately on a Viewlux instrument.

The target of a further assay is T2, human S1P3 receptor (Homo sapiens, UniProt Q99500).
T2 construct: expressed in transfected cells; membranes
T2 sequence (Q99500 whole entry): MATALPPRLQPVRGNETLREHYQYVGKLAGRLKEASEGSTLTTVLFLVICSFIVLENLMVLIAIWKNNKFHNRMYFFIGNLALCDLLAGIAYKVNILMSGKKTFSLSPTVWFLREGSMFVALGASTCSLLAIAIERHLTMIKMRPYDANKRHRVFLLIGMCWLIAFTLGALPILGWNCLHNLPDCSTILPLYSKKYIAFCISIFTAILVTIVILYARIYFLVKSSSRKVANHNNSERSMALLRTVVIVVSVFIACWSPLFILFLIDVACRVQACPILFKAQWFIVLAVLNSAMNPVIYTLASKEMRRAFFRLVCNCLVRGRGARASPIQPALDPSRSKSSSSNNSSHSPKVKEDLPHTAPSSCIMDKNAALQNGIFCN
Description: S1P3 GTPγS Assay. The class given is biochemical. The note with it: S1P3 RBL-2H3 membranes, agonist. As for the experimental part:
For membrane preparations all steps were performed at 4° C. Rat hepatoma cells stably expressing the human S1P1 receptor or Rat Basophilic Leukaemia cells (RBL) stably expressing human S1P3 receptor were grown to 80% confluency before being harvested into 10 ml Phospho-Buffered Saline (PBS) and centrifuged at 1200 rpm for 5 minutes. After removal of the supernatant, the pellet was re-suspended and cells were homogenised within a glass Waring blender for 2 bursts of 15 secs in 200 mls of buffer (50 mM HEPES, 1 mM leupeptin, 25 μg/ml bacitracin, 1 mM EDTA, 1 mM PMSF, 2 μM pepstatin A). The blender was plunged into ice for 5 mins after the first burst and 10-40 mins after the final burst to allow foam to dissipate. The material was then spun at 500 g for 20 mins and the supernatant spun for 36 mins at 48,000 g. The pellet was resuspended in the same buffer as above but without PMSF and pepstatin A. The material was then forced through a 0.6 mm needle, made up to the required volume, (usually ×4 the volume of the original cell pellet), aliquoted and stored frozen at −80° C.
S1P3 membranes from rat basophilic leukaemia cells (RBL-2H3) (1.5 μg/well) were adhered to WGA-coated SPA beads (0.125 mg/well) in assay buffer (HEPES 20 mM, MgCl2 3 mM, NaCl 100 mM and pH adjusted to 7.4 using KOH 5M), GDP 10 μM FAC and saponin 90 μg/ml FAC was also added).
After 30 minutes pre-coupling on ice the bead and membrane suspension was dispensed into a white Greiner polypropylene LV384-well plate (5 μl/well), containing 0.1 μl of the compound. 5 μl/well [^35S]-GTPγS (0.5 nM final radioligand conc) made up in assay buffer was then added to agonist plates. The final assay cocktail (10.1 μl) was centrifuged at 1000 rpm for 5 minutes then read immediately on a Viewlux reader. […]
as §1

Counter-ions that a name gives are not always drawn.

A word on the EC50: it is the concentration giving half of the maximal effect. Read a low EC50 as a more potent agent.

T1 sequence (P21453 whole entry): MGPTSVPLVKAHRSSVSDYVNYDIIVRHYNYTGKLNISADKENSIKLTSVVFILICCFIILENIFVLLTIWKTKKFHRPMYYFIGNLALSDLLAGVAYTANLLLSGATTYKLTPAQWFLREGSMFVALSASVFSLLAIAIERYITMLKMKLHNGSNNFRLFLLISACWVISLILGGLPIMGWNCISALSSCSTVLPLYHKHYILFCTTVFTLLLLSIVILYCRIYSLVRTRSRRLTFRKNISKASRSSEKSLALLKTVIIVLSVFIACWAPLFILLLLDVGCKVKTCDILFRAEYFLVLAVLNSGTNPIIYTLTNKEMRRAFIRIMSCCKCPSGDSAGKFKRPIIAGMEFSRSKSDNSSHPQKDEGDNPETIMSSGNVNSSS

Take `CC(C)Oc1ccc(-c2nc(-c3cccc4c3CNC4)no2)cc1C#N` [Example 1, 5-[3-(2,3-Dihydro-1H-isoindol-4-yl)-1,2,4-oxadiazol-5-yl]-2-[(1-methylethyl)oxy]benzonitrile hydrochloride]: the EC50 on human S1P1 receptor was less than 0.01 µM; on human S1P3 receptor it was more than 10 µM.
For `CC(C)Oc1ccc(-c2nc(-c3cccc4c3CNC4)no2)cc1Cl` [Example 2, 4-(5-{3-Chloro-4-[(1-methylethyl)oxy]phenyl}-1,2,4-oxadiazol-3-yl)-2,3-dihydro-1H-isoindole], in that order: less than 0.01 µM and more than 10 µM.
For `CC(C)Oc1ccc(-c2nc(-c3cccc4c3CN(CCCC(=O)O)C4)no2)cc1C#N` [Example 5, 4-[4-(5-{3-cyano-4-[(1-methylethyl)oxy]phenyl}-1,2,4-oxadiazol-3-yl)-1,3-dihydro-2H-isoindol-2-yl]butanoic acid], the half-maximal effective concentration (EC50) at human S1P3 receptor is more than 10 µM.
